In patent US12583839B2, “PD-L1 antagonist compound” (ADLAI NORTYE BIOPHARMA CO., LTD., priority 2019, dated 2026):

Target: T1, PD-1/PD-L1 (Homo sapiens, UniProt Q9NZQ7)
T1 construct: 60535 (PD-1/NFAT-Reporter-Jurkat); host or cells: CHO cells expressing PD-L1; Jurkat cells expressing PD-1
Experiment: Detection of biological activity of PD-1/PD-L1 signaling inhibition at the cellular level (NFAT luciferase reporter, PD-1/NFAT-Reporter-Jurkat cells co-cultured with TCR activator/PD-L1-CHO cells)
Assay type: cell-based
Conditions: PD-1/NFAT-Reporter-Jurkat + TCR activator/PD-L1-CHO co-culture, 6 hours; Atezolizumab as positive control
Excerpt: Detection of Biological Activity of PD-1/PD-L1 Signaling Inhibition at the Cellular Level
This detection method is used for evaluating the biological activity of the compounds described in the present invention at the cellular level.
This detection method uses the luciferase reporter gene method to detect the biological activity of the compound on the inhibition of PD-1/PD-L1 signal at the cellular level. PD-1/NFAT—Reporter—Jurkat cells stably express human PD-1 and express the luciferase reporter gene regulated by NFAT elements; TCR activator/PD-L1-CHO cells stably express human PD-L1 and TCR activator elements. When the two cell lines were co-cultured, the binding of PD-1/PD-L1 inhibited the TCR signaling pathway, thereby inhibiting the expression of the downstream NFAT-controlled luciferase reporter gene. When PD-1/PD-L1 antibody or inhibitor is added, this inhibitory effect is reversed and luciferase is expressed, so that the effect of PD-1/PD-L1 inhibitor on luciferase activity can be detected.
PD-1/NFAT—Reporter—Jurkat cell (Cat: 60535) and TCR activator/PD-L1-CHO cell (Cat: 60536) were purchased from BPS Bioscience. Anti-human PD-L1 antibody (Atezolizumab, Cat: A2004) was purchased from Selleck; luciferase reporter gene expression detection kit (ONE-Glo™ Luciferase Assay System, Cat: E6120) was purchased from Promega; multifunction plate reader (SpectraMax i3x) was purchased from Molecular Devices.
The PD-1/NFAT—Reporter—Jurkat cells and TCR activator/PD-L1-CHO cells were cultured according to the routine cell culture protocol.
TCR activator/PD-L1-CHO cells were harvested and seeded into a 96-well culture plate at 35,000 cells/well in a medium volume of 100 μl and incubated overnight at 37° C. The next day, the medium was discarded, compound was added and incubated for 30 minutes, while a solvent control (dimethyl sulfoxide, DMSO, final concentration of 0.1%) and PD-L1 antibody (Atezolizumab, final concentration of about 10 nM) as positive controls were set. PD-1/NFAT-reporter-Jurkat cells were then added. After culturing for 6 hours, the luciferase activity was detected according to the instructions of the luciferase detection reagent.
Using PD-L1 antibody as a positive control, calculate the inhibition rate of PD-1/PD-L1 binding of the test compound (%)=(chemiluminescence value of compound treated wells/average value of chemiluminescence value of solvent control wells−1)/(average value of chemiluminescence value of PD-L1 antibody well/average value of chemiluminescence value of solvent control well−1)×100%.
According to the above detection method, the compounds of the present invention were evaluated for their biological activity at the cellular level, and the activity results are shown in the following table.

T1 sequence (Q9NZQ7 19-290): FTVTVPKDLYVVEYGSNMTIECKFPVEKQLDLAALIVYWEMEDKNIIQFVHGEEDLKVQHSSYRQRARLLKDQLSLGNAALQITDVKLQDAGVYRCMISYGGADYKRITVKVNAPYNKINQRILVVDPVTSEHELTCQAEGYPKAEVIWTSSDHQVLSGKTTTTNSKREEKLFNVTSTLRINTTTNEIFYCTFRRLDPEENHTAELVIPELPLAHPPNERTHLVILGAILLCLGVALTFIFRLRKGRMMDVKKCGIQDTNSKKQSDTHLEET

Row | EC50 | Compound
1 | 83 nM | N#Cc1cncc(COc2cc(Cn3ncc4c(-c5cccc(-c6ccc(CN7CC[C@@H](O)C7)cc6)c5Cl)cccc43)c(Cl)cc2CN[C@@H](CO)C(=O)O)c1 [Compound 1]
2 | 85 nM | Cc1c(-c2ccc(CNC[C@@H]3CCC(=O)N3)cc2)cccc1-c1cccc2c1cnn2Cc1cc(OCc2cncc(C#N)c2)c(CN[C@@H](CO)C(=O)O)cc1Cl [Compound 2]
3 | 395 nM | N#Cc1cncc(COc2cc(Cn3ncc4c(-c5cccc(-c6ccc(CN7CCOCC7)cc6)c5Cl)cccc43)c(Cl)cc2CN[C@@H](CO)C(=O)O)c1 [Compound 3]
4 | 206 nM | CN(CCO)Cc1ccc(-c2cccc(-c3cccc4c3cnn4Cc3cc(OCc4cncc(C#N)c4)c(CN[C@@H](CO)C(=O)O)cc3Cl)c2Cl)cc1 [Compound 4]
5 | 58 nM | N#Cc1cncc(COc2cc(Cn3ncc4c(-c5cccc(-c6ccc(CNCCO)cc6)c5Cl)cccc43)c(Cl)cc2CN[C@@H](CO)C(=O)O)c1 [Compound 5]
6 | 228 nM | CN(CCO[C@H]1CCOC1)Cc1ccc(-c2cccc(-c3cccc4c3cnn4Cc3cc(OCc4cncc(C#N)c4)c(CN[C@@H](CO)C(=O)O)cc3Cl)c2Cl)cc1 [Compound 6]
7 | 161 nM | CN1C(=O)CC[C@H]1CNCc1ccc(-c2cccc(-c3cccc4c3cnn4Cc3cc(OCc4cncc(C#N)c4)c(CN[C@@H](CO)C(=O)O)cc3Cl)c2Cl)cc1 [Compound 7]
8 | 31 nM | COc1cc(-c2cccc(-c3cccc4c3cnn4Cc3cc(OCc4cncc(C#N)c4)c(CN[C@@H](CO)C(=O)O)cc3Cl)c2Cl)ccc1CNC[C@@H]1CCC(=O)N1 [Compound 8]
9 | 591 nM | N#Cc1cncc(COc2cc(Cn3ncc4c(-c5cccc(-c6ccc(CNC[C@@H]7CCC(=O)N7)cn6)c5Cl)cccc43)c(Cl)cc2CN[C@@H](CO)C(=O)O)c1 [Compound 9]
10 | 82 nM | N#Cc1cncc(COc2cc(Cn3ncc4c(-c5cccc(-c6ccc(CNC[C@@H]7CCC(=O)N7)nc6)c5Cl)cccc43)c(Cl)cc2CN[C@@H](CO)C(=O)O)c1 [Compound 10]
11 | 112 nM | COc1cc(CNC[C@@H]2CCC(=O)N2)ccc1-c1cccc(-c2cccc3c2cnn3Cc2cc(OCc3cncc(C#N)c3)c(CN[C@@H](CO)C(=O)O)cc2Cl)c1Cl [Compound 11]
12 | 255 nM | N#Cc1cncc(COc2cc(Cn3ncc4c(-c5cccc(-c6ccc(CNC[C@@H]7CCC(=O)N7)cc6)c5F)cccc43)c(Cl)cc2CN[C@@H](CO)C(=O)O)c1 [Compound 12]
13 | 116 nM | N#Cc1cncc(COc2cc(Cn3ncc4c(-c5cccc(-c6ccc(CNC[C@@H]7CCC(=O)N7)cc6)c5C#N)cccc43)c(Cl)cc2CN[C@@H](CO)C(=O)O)c1 [Compound 13]
14 | 339 nM | N#Cc1cncc(COc2cc(Cn3ncc4c(-c5cccc(-c6ccc(CNC[C@@H]7CCC(=O)N7)cc6)c5)cccc43)c(Cl)cc2CN[C@@H](CO)C(=O)O)c1 [Compound 14]
15 | 562 nM | N#Cc1cncc(COc2cc(Cn3ncc4c(-c5cccc(-c6ccc(CCN7CC[C@@H](O)C7)cc6)c5Cl)cccc43)c(Cl)cc2CN[C@@H](CO)C(=O)O)c1 [Compound 18]
16 | 510 nM | N#Cc1cncc(COc2cc(Cn3ncc4c(-c5cccc(-c6ccc(CCCN7CC[C@@H](O)C7)cc6)c5Cl)cccc43)c(Cl)cc2CN[C@@H](CO)C(=O)O)c1 [Compound 19]
17 | 89 nM | N#Cc1cncc(COc2cc(Cn3ncc4c(-c5cccc(-c6ccc(CNC[C@@H]7CCC(=O)N7)cc6)c5Cl)cccc43)c(Cl)cc2CNCC(=O)O)c1 [Compound 22]
18 | 512 nM | CC(C)OC(=O)[C@H](CO)NCc1cc(Cl)c(Cn2ncc3c(-c4cccc(-c5ccc(CNC[C@@H]6CCC(=O)N6)cc5)c4Cl)cccc32)cc1OCc1cncc(C#N)c1 [Compound 23]
19 | 54 nM | N#Cc1cncc(COc2cc(Cn3ncc4c(-c5cccc(-c6ccc(CNC[C@@H]7CCC(=O)N7)cc6)c5Cl)cccc43)c(Cl)cc2CNCCO)c1 [Compound 24]
20 | 128 nM | N#Cc1cncc(COc2cc(Cn3ncc4c(-c5cccc(-c6ccc(CNC[C@@H]7CCC(=O)N7)cc6)c5Cl)cccc43)c(Cl)cc2CN2CCC[C@H]2C(=O)O)c1 [Compound 25]
21 | 86 nM | CN(Cc1cc(Cl)c(Cn2ncc3c(-c4cccc(-c5ccc(CNC[C@@H]6CCC(=O)N6)cc5)c4Cl)cccc32)cc1OCc1cncc(C#N)c1)[C@@H](CO)C(=O)O [Compound 26]
22 | 133 nM | N#Cc1cncc(COc2cc(Cn3ncc4c(-c5cccc(-c6ccc(CNC[C@@H]7CCC(=O)N7)cc6)c5Cl)cccc43)c(Cl)cc2CN2CC[C@@H](C(=O)O)C2)c1 [Compound 27]

Row | EC50 | Compound
23 | 110 nM | COc1cc(-c2cccc(-c3cccc4c3cnn4Cc3cc(OCc4cncc(C#N)c4)c(CN[C@@H](CO)C(=O)OC(C)C)cc3Cl)c2Cl)ccc1CNC[C@@H]1CCC(=O)N1 [Compound 28]
24 | 66 nM | COc1nc(-c2cccc(-c3cccc4c3cnn4Cc3cc(OCc4cncc(C#N)c4)c(CNCCO)cc3Cl)c2Cl)ccc1CNC[C@@H]1CCC(=O)N1 [Compound 29]
25 | 82 nM | COc1cc(Cn2ncc3c(-c4cccc(-c5ccc(CNC[C@@H]6CCC(=O)N6)cc5)c4Cl)cccc32)c(Cl)cc1CN[C@@H](CO)C(=O)O [Compound 30]
26 | 82 nM | COc1cc(Cn2ncc3c(-c4cccc(-c5ccc(CNC[C@@H]6CCC(=O)N6)cc5)c4Cl)cccc32)c(Cl)cc1CNC[C@H](O)CC(=O)O [Compound 31]
27 | 244 nM | COc1cc(Cn2ncc3c(-c4cccc(-c5ccc(CNC[C@@H]6CCC(=O)N6)cc5)c4Cl)cccc32)c(Cl)cc1CNCC(=O)O [Compound 32]
28 | 511 nM | COc1cc(Cn2ncc3c(-c4cccc(-c5ccc(CNC[C@@H]6CCC(=O)N6)cc5)c4Cl)cccc32)c(Cl)cc1CN1CC[C@@H](C(=O)O)C1 [Compound 33]
29 | 859 nM | COc1cc(Cn2ncc3c(-c4cccc(-c5ccc(CNC[C@@H]6CCC(=O)N6)cc5)c4Cl)cccc32)c(Cl)cc1CN1CCC[C@@H](C(=O)O)C1 [Compound 35]
30 | 459 nM | COc1cc(Cn2ncc3c(-c4cccc(-c5ccc(CNC[C@@H]6CCC(=O)N6)cc5)c4Cl)cccc32)c(Cl)cc1CN1CCC[C@H](C(=O)O)C1 [Compound 36]
31 | 977 nM | COc1cc(Cn2ncc3c(-c4cccc(-c5ccc(CNC[C@@H]6CCC(=O)N6)cc5)c4Cl)cccc32)c(Cl)cc1CN1CCC(C(=O)O)CC1 [Compound 37]
32 | 809 nM | COc1cc(Cn2ncc3c(-c4cccc(-c5ccc(CNC[C@@H]6CCC(=O)N6)cc5)c4Cl)cccc32)c(Cl)cc1CN1CC(C(=O)O)C1 [Compound 38]
33 | 298 nM | COc1cc(Cn2ncc3c(-c4cccc(-c5ccc(CNC[C@@H]6CCC(=O)N6)cc5)c4Cl)cccc32)c(Cl)cc1CNCC1CCC(C(=O)O)CC1 (stereo partly shown) [Compound 39]
34 | 213 nM | COc1cc(Cn2ncc3c(-c4cccc(-c5ccc(CNC[C@@H]6CCC(=O)N6)cc5)c4Cl)cccc32)c(Cl)cc1CNC1CCC(C(=O)O)CC1 (stereo partly shown) [Compound 40]
35 | 295 nM | COc1cc(Cn2ncc3c(-c4cccc(-c5ccc(CNC[C@@H]6CCC(=O)N6)cc5)c4Cl)cccc32)c(Cl)cc1CNC1CCC(C(=O)O)CC1 (stereo partly shown) [Compound 41]
36 | 348 nM | COc1cc(Cn2ncc3c(-c4cccc(-c5ccc(CNC[C@@H]6CCC(=O)N6)cc5)c4Cl)cccc32)c(Cl)cc1CN1C[C@H](O)C[C@H]1C(=O)O [Compound 42]
37 | 537 nM | COc1cc(Cn2ncc3c(-c4cccc(-c5ccc(CNC[C@@H]6CCC(=O)N6)cc5)c4Cl)cccc32)c(Cl)cc1CN1CCC[C@H]1C(=O)O [Compound 43]
38 | 499 nM | COc1cc(Cn2ncc3c(-c4cccc(-c5ccc(CNC[C@@H]6CCC(=O)N6)cc5)c4Cl)cccc32)c(Cl)cc1CN(C)CC1CCC(C(=O)O)CC1 (stereo partly shown) [Compound 47]
39 | 654 nM | COc1cc(Cn2ncc3c(-c4cccc(-c5ccc(CNC[C@@H]6CCC(=O)N6)c(C)c5)c4Cl)cccc32)c(Cl)cc1CN1CC[C@@H](C(=O)O)C1 [Compound 48]
40 | 850 nM | COc1cc(Cn2ncc3c(-c4cccc(-c5ccc(CNC[C@@H]6CCC(=O)N6)c(Cl)c5)c4Cl)cccc32)c(Cl)cc1CN1CC[C@@H](C(=O)O)C1 [Compound 49]
41 | 692 nM | COc1cc(Cn2ncc3c(-c4cccc(-c5ccc(CNC[C@@H]6CCC(=O)N6)c(OC(F)(F)F)c5)c4Cl)cccc32)c(Cl)cc1CN1CC[C@@H](C(=O)O)C1 [Compound 51]
42 | 92 nM | COc1cc(-c2cccc(-c3cccc4c3cnn4Cc3cc(OC)c(CN4CC[C@@H](C(=O)O)C4)cc3Cl)c2Cl)ccc1CNC[C@@H]1CCC(=O)N1 [Compound 52]
43 | 24 nM | COc1cc(-c2cccc(-c3cccc4c3cnn4Cc3cc(OC)c(CN[C@@H](CO)C(=O)O)cc3Cl)c2Cl)ccc1CNC[C@@H]1CCC(=O)N1 [Compound 53]
